Values of other authors as cited in patent US9540416B2, “Purification process” (GLAXOSMITHKLINE BIOLOGICALS S.A., priority 2012, dated 2017).
Entries after “also recorded” stand apart in the source; their conditions may differ.

Tests used:
mice and other mammals = settings: in mice and other mammals
[1] = relative to other Quillaja saponins

Substance | adjuvant activity (mice and other mammals) | toxicity [1]
QS-17 | significant adjuvant activity | 
QS-18 | significant adjuvant activity | more toxic at lower doses than other Quillaja saponins
QS-21 | significant adjuvant activity; also recorded: strong adjuvant activity | low toxicity
